Results taken from the supplement of paper PMC9663587.

Key:
[1] = compound: CCN1CCN(Cc2ccc(Nc3ncc(F)c(-c4cc(F)c5nc(C)n(C(C)C)c5c4)n3)nc2)CC1; experiment: GR value, 72 h; higher = faster growth (1 = untreated, <0 = killing);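 further: breast cancer and non-malignant breast epithelial lines, nine half-log doses, viable cells counted by Hoechst and LIVE/DEAD dye imaging versus time-zero plates and DMSO controls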
THZ1 = compound: CN(C)C/C=C/C(=O)Nc1ccc(C(=O)Nc2cccc(Nc3ncc(Cl)c(-c4c[nH]c5ccccc45)n3)c2)cc1 [THZ1]; experiment: as above
BSJ-03-123 = compound: CC(=O)c1c(C)c2cnc(Nc3ccc(N4CCN(CCOCCOCCOCCNC(=O)COc5cccc6c5C(=O)N(C5CCC(=O)NC5=O)C6=O)CC4)cn3)nc2n(C2CCCC2)c1=O [BSJ-03-123]; experiment: as above
LEE011/Ribociclib = compound: CN(C)C(=O)c1cc2cnc(Nc3ccc(N4CCNCC4)cn3)nc2n1C1CCCC1 [LEE011/Ribociclib]; experiment: as above
YKL-5-124 = compound: C=CC(=O)Nc1ccc(C(=O)Nc2[nH]nc3c2CN(C(=O)N[C@H](CN(C)C)c2ccccc2)C3(C)C)cc1 [YKL-5-124]; experiment: as above
THZ531 [2] = compound: T1, CN(C)C/C=C/C(=O)Nc1ccc(C(=O)N2CCC[C@@H](Nc3ncc(Cl)c(-c4c[nH]c5ccccc45)n3)C2)cc1 [THZ531]; experiment: as above
[3] = compound: CC(=O)c1c(C)c2cnc(Nc3ccc(N4CCNCC4)cn3)nc2n(C2CCCC2)c1=O; experiment: as above
[4] = compound: CCc1cnn2c(NCc3ccc[n+]([O-])c3)cc(N3CCCC[C@H]3CCO)nc12; experiment: as above
Ceritinib/LDK378 = compound: Cc1cc(Nc2ncc(Cl)c(Nc3ccccc3S(=O)(=O)C(C)C)n2)c(OC(C)C)cc1C1CCNCC1 [Ceritinib/LDK378]
Rucaparib = compound: CNCc1ccc(-c2[nH]c3cc(F)cc4c3c2CCNC4=O)cc1 [Rucaparib]
THZ531 [5] = compound: T1, THZ531
senexin b = compound: CN1CCN(C(=O)c2ccc3cc(CCNc4ncnc5ccc(C#N)cc45)ccc3c2)CC1 [senexin b]
Tivantinib/ARQ197 = compound: O=C1NC(=O)[C@@H](c2cn3c4c(cccc24)CCC3)[C@@H]1c1c[nH]c2ccccc12 [Tivantinib/ARQ197]
Pictilisib/GDC0941 = compound: CS(=O)(=O)N1CCN(Cc2cc3nc(-c4cccc5[nH]ncc45)nc(N4CCOCC4)c3s2)CC1 [Pictilisib/GDC0941]
BSJ-01-175 = compound: CN(C)C/C=C/C(=O)Nc1ccc(O[C@@H]2CCC[C@@H](Nc3ncc(Cl)c(-c4c[nH]c5ccccc45)n3)C2)cc1 [BSJ-01-175]
AZD6738 = compound: C[C@@H]1COCCN1c1cc(C2([S@](C)(=N)=O)CC2)nc(-c2cc[nH]c3nccc2-3)n1 [AZD6738]
Paclitaxel = compound: CC(=O)O[C@H]1C(=O)[C@@]2(C)[C@H]([C@H](OC(=O)c3ccccc3)[C@]3(O)C[C@H](OC(=O)[C@H](O)[C@@H](NC(=O)c4ccccc4)c4ccccc4)C(C)=C1C3(C)C)[C@]1(OC(C)=O)CO[C@@H]1C[C@@H]2O [Paclitaxel]
Cediranib/AZD2171 = compound: COc1cc2c(Oc3ccc4[nH]c(C)cc4c3F)ncnc2cc1OCCCN1CCCC1 [Cediranib/AZD2171]
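Wherever GR50, 72 h is given: breast cancer and non-malignant breast epithelial cell lines, Deep Dye Drop or Dye Drop imaging, nine half-log doses, GR normalized to time-zero plates and DMSO-only controls.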

With MDAMB415 the GR value ([1]; 0.001 µM) was 0.878 GR, the GR value ([1]; 0.003162 µM) was 0.833 GR and the GR value ([1]; 0.01 µM) was 0.478 GR. The GR value ([1]; 0.03162 µM) was 0.21 GR, the GR value ([1]; 0.1 µM) was 0.136 GR and the GR value ([1]; 0.3162 µM) was 0.113 GR. It also gave a GR value ([1]; 1 µM) of 0.086 GR, a GR value ([1]; 3.162 µM) of 0.0858 GR and a GR value ([1]; 10 µM) of 0.0092 GR. For the same cell line, the GR value (THZ1; 0.0001 µM) was 0.979 GR, the GR value (THZ1; 0.0003162 µM) was 0.999 GR and the GR value (THZ1; 0.001 µM) was 0.995 GR. The GR value (THZ1; 0.003162 µM) was 0.857 GR, the GR value (THZ1; 0.01 µM) was 0.797 GR and the GR value (THZ1; 0.03162 µM) was 0.524 GR. The GR value (THZ1; 0.1 µM) was 0.216 GR, the GR value (THZ1; 0.3162 µM) was -0.218 GR and the GR value (THZ1; 1 µM) was -0.408 GR. The GR value (BSJ-03-123; 0.001 µM) was 0.922 GR, the GR value (BSJ-03-123; 0.003162 µM) was 0.789 GR and the GR value (BSJ-03-123; 0.01 µM) was 0.714 GR. The GR value (BSJ-03-123; 0.03162 µM) was 0.825 GR, the GR value (BSJ-03-123; 0.1 µM) was 0.744 GR and the GR value (BSJ-03-123; 0.3162 µM) was 0.674 GR. For the same cell line, the GR value (BSJ-03-123; 1 µM) was 0.61 GR, the GR value (BSJ-03-123; 3.162 µM) was 0.545 GR and the GR value (BSJ-03-123; 10 µM) was 0.181 GR. It also gave a GR value (LEE011/Ribociclib; 0.001 µM) of 0.708 GR, a GR value (LEE011/Ribociclib; 0.003162 µM) of 0.659 GR and a GR value (LEE011/Ribociclib; 0.01 µM) of 0.504 GR. It also gave a GR value (LEE011/Ribociclib; 0.03162 µM) of 0.395 GR, a GR value (LEE011/Ribociclib; 0.1 µM) of 0.287 GR and a GR value (LEE011/Ribociclib; 0.3162 µM) of 0.248 GR. It also gave a GR value (LEE011/Ribociclib; 1 µM) of 0.264 GR, a GR value (LEE011/Ribociclib; 3.162 µM) of 0.278 GR and a GR value (LEE011/Ribociclib; 10 µM) of 0.222 GR. It also gave a GR value (YKL-5-124; 0.001 µM) of 0.597 GR, a GR value (YKL-5-124; 0.003162 µM) of 0.543 GR and a GR value (YKL-5-124; 0.01 µM) of 0.372 GR. The GR value (YKL-5-124; 0.03162 µM) was 0.396 GR, the GR value (YKL-5-124; 0.1 µM) was 0.338 GR and the GR value (YKL-5-124; 0.3162 µM) was 0.279 GR. The GR value (YKL-5-124; 1 µM) was 0.323 GR, the GR value (YKL-5-124; 3.162 µM) was 0.24 GR and the GR value (YKL-5-124; 10 µM) was -0.0052 GR. The GR value (THZ531 [2]; 0.0001 µM) was 0.975 GR, the GR value (THZ531 [2]; 0.0003162 µM) was 0.9 GR and the GR value (THZ531 [2]; 0.001 µM) was 0.875 GR. The GR value (THZ531 [2]; 0.003162 µM) was 1.05 GR, the GR value (THZ531 [2]; 0.01 µM) was 0.946 GR and the GR value (THZ531 [2]; 0.03162 µM) was 0.731 GR. The GR value (THZ531 [2]; 0.1 µM) was 0.0348 GR, the GR value (THZ531 [2]; 0.3162 µM) was -0.33 GR and the GR value (THZ531 [2]; 1 µM) was -0.343 GR. The GR value ([3]; 0.0003162 µM) was 0.995 GR, the GR value ([3]; 0.001 µM) was 0.983 GR and the GR value ([3]; 0.003162 µM) was 0.933 GR. For the same cell line, the GR value ([3]; 0.01 µM) was 0.791 GR, the GR value ([3]; 0.03162 µM) was 0.498 GR and the GR value ([3]; 0.1 µM) was 0.298 GR. For the same cell line, the GR value ([3]; 0.3162 µM) was 0.17 GR, the GR value ([3]; 1 µM) was 0.178 GR and the GR value ([3]; 3.162 µM) was 0.121 GR. The GR value ([4]; 0.0001 µM) was 1.06 GR, the GR value ([4]; 0.0003162 µM) was 1.04 GR and the GR value ([4]; 0.001 µM) was 1.18 GR. It also gave a GR value ([4]; 0.003162 µM) of 1.2 GR, a GR value ([4]; 0.01 µM) of 0.935 GR and a GR value ([4]; 0.03162 µM) of -0.112 GR. For the same cell line, the GR value ([4]; 0.1 µM) was -0.482 GR, the GR value ([4]; 0.3162 µM) was -0.48 GR and the GR value ([4]; 1 µM) was -0.484 GR. For the same cell line, the “GR50, 72 h” value (Ceritinib/LDK378) was 3.76 µM, the “GR50, 72 h” value (Rucaparib) was greater than 10 µM and the “GR50, 72 h” value (THZ531 [5]) was 0.0474 µM. For the same cell line, the “GR50, 72 h” value (senexin b) was greater than 10 µM, the “GR50, 72 h” value (Tivantinib/ARQ197) was 1.5 µM and the “GR50, 72 h” value (Pictilisib/GDC0941) was 0.597 µM. The “GR50, 72 h” value (BSJ-01-175) was 0.0616 µM, the “GR50, 72 h” value (AZD6738) was greater than 10 µM and the “GR50, 72 h” value (Paclitaxel) was 0.000687 µM. For the same cell line, the “GR50, 72 h” value (Cediranib/AZD2171) was 1.46 µM.
